Literature values, collected in patent US10695378B2, “Direct reprogramming of cells to cardiac myocyte fate” (Duke University, priority 2010, dated 2020).

Experiments:
[1] = system: TGFβ-induced epithelial-to-mesenchymal transition
JAK1 = settings: small molecule inhibitors of JAK-1
[2] = not given; remark: listed apart in the source
[3] = not given; remark: listed apart in the source

In the case of Cc1cccc(-c2nn(C(=S)Nc3ccccc3)cc2-c2ccnc3ccccc23)n1 [A83-01, 3-(6-Methyl-2-pyridinyl)-N-phenyl-4-(4-quinolinyl)-1H-pyrazole-1-carbothioamide], the TGFβ-induced epithelial-to-mesenchymal transition [1] is listed as “inhibits” and the “phosphorylation of Smad2” value (Smad2) is listed as “blocks”.

For N#CC[C@H](C1CCCC1)n1cc(-c2ncnc3[nH]ccc23)cn1 [INCB018424], the “IC50 values (in words)” value (JAK1) is given as “nanomolar range”.

For CC(C)(C)c1nc2c3ccc(F)cc3c3c(=O)[nH]ccc3c2[nH]1 [JAK inhibitor 1, 2-(1,1-Dimethylethyl)-9-fluoro-3,6-dihydro-7H-benz[h]-imidaz[4,5-f]isoquinolin-7-one], the “IC50 values (in words)” value (JAK1) is listed as “nanomolar range” and the “phosphorylation of STATS” value is listed as “blocks”.

In the case of O=C(O)C=C(CCc1ccc(Cl)cc1)c1ccccc1 [PS48, 5-(4-Chloro-phenyl)-3-phenyl-pent-2-enoic acid], the “soluble in DMSO” value [2] is given as > 20 mg/mL.

For O=C(O)C(Cc1c[nH]c2ccccc12)N1C(=O)c2ccccc2C1=O (stereo not shown) [RG108, 2-(1,3-Dioxo-1,3-dihydro-2H-isoindol-2-yl)-3-(1H-indol-3-yl)propionic acid], the “doubling time in culture” value (human tumor cell line) is given as “increases” and the “human tumor cell line proliferation” value (human tumor cell line) is given as “inhibit”.

For CCCC(CCC)C(=O)O [Valproic acid, 2-propylpentanoic acid], the therapeutic range ([3]; currently established therapeutic range) is listed as 50 to 120 µg/mL and the “Serum or plasma valproic acid concentrations” value ([3]; during controlled therapy) is listed as 20 to 100 mg/L.
